Legend:
Assay type in all cases: cell-based
A2780cis cells = assay: MBZ cell viability IC50 (CellTiter Glo); settings: 72 hours
Description: (§1) The effect of mebendazole administration on cell lines derived from exemplary cancers was tested. One approach to determining the effectiveness of mebendazole in the treatment of cancer comprises in vitro testing. In this approach, cancer cell lines representative of the cancers of the disclosure are cultured in vitro according to standard techniques (see, for example, Human Cell Culture Protocols, Third Edition, […] R. D. Hughes, Editors, Humana Press, 2012), and increasing concentrations of mebendazole are administered to determine the IC50 value. As used herein, the term “IC50 value” refers to the concentration of a compound (for example mebendazole) wherein the response to that compound (such as inhibited cellular viability) is reduced by half. The IC50 is thus a measure of the effectiveness of a compound in inhibiting a biological process. […] Based on this biology, several rare cancer tumor cell lines including neuroblastoma, rhabdomyosarcoma and Ewing sarcoma were analyzed for sensitivity to MBZ treatment in vitro. […] In all cases, including those described below, the viable cells were determined using the CellTiter Glo® kit and an IC50 curve was generated using the PRISM software. […] FIGS. 1 and 2 show the effect of mebendazole on 3 ovarian cancer derived cell lines, A2780cis, SKOV-3 and TOV-112D at 24 hours, 48 hours and 72 hours. […] Percent cell viability is shown on the Y-axis, from 0 to 150 in units of 25. A2780cis cell data are represented by filled circles and a dotted line. SKOV-3 cell data are represented by squares and a solid line. TOV-112D cell data are represented by triangles and a dashed line. […] In FIG. 2, on the X-axis, the log concentration of mebendazole in μM, indicated from -4 to 4 in units of 2. In FIG. 2, on the Y-axis, percent viability is shown, from 0 to 125 in units of 25.

[1] = tested on: SKOV-3 ovarian carcinoma cell line; assay: MBZ cell viability IC50 (CellTiter Glo); settings: Homo sapiens, SK-OV-3, 72 hours, 0-50 μM
Description: as §1

TOV-112D cells = assay: MBZ cell viability IC50 (CellTiter Glo); settings: Homo sapiens, TOV112D, 72 hours
Description: as §1

[2] = tested on: CHLA-9 Ewing's sarcoma cell line; assay: MBZ cell viability IC50 (CellTiter Glo); settings: 72 hours
Description: (§2) The effect of mebendazole administration on cell lines derived from exemplary cancers was tested. One approach to determining the effectiveness of mebendazole in the treatment of cancer comprises in vitro testing. In this approach, cancer cell lines representative of the cancers of the disclosure are cultured in vitro according to standard techniques (see, for example, Human Cell Culture Protocols, Third Edition, […] R. D. Hughes, Editors, Humana Press, 2012), and increasing concentrations of mebendazole are administered to determine the IC50 value. As used herein, the term “IC50 value” refers to the concentration of a compound (for example mebendazole) wherein the response to that compound (such as inhibited cellular viability) is reduced by half. The IC50 is thus a measure of the effectiveness of a compound in inhibiting a biological process. […] Based on this biology, several rare cancer tumor cell lines including neuroblastoma, rhabdomyosarcoma and Ewing sarcoma were analyzed for sensitivity to MBZ treatment in vitro. […] In all cases, including those described below, the viable cells were determined using the CellTiter Glo® kit and an IC50 curve was generated using the PRISM software.

[3] = tested on: NCI-H295R adrenal cortical carcinoma cell line; assay: MBZ cell viability IC50 (CellTiter Glo); settings: Homo sapiens, 72 hours
Description: as §2

[4] = tested on: Rh-30 rhabdomyosarcoma cell line; assay: MBZ cell viability IC50 (CellTiter Glo); settings: Rh30, 72 hours
Description: as §2

[5] = tested on: Rh-41 rhabdomyosarcoma cell line; assay: MBZ cell viability IC50 (CellTiter Glo); settings: Homo sapiens, Rh41, 72 hours
Description: as §2

[6] = tested on: SK-UT-1B leiomyosarcoma cell line; assay: MBZ cell viability IC50 (CellTiter Glo); settings: Homo sapiens, Skut1B, 72 hours
Description: as §2

[7] = tested on: SNU-16 gastric carcinoma cell line; assay: MBZ cell viability IC50 (CellTiter Glo); settings: Homo sapiens, 72 hours
Description: as §2

[8] = tested on: SW-13 adrenal cortical carcinoma cell line; assay: MBZ cell viability IC50 (CellTiter Glo); settings: Homo sapiens, SW13, 72 hours
Description: as §2

[9] = tested on: TC-32 Ewing's sarcoma cell line; assay: MBZ cell viability IC50 (CellTiter Glo); settings: Homo sapiens, 72 hours
Description: as §2

[10] = tested on: TC-71 Ewing's sarcoma cell line; assay: MBZ cell viability IC50 (CellTiter Glo); settings: 72 hours
Description: as §2

[11] = tested on: multiple rare cancer tumor cell lines; assay: MBZ alone, cell viability IC50 in rare cancer tumor cell lines (Example 3); settings: read-out: IC50s (range over cell lines)
Description: The FDA-approved anti-helminthic drug mebendazole (MBZ) has been reported to affect several biological pathways involved in tumor growth and metastasis. Based on this activity, multiple rare cancer tumor cell lines including, but not limited to, neuroblastoma, carcinoid tumors, esophageal adenocarcinoma, gastrointestinal stromal tumors, leiomyosarcoma, pheochromocytoma, and mesothelioma were analyzed for their susceptibility to MBZ treatment alone or in combination with standard chemotherapeutic agents in vitro.

[12] = tested on: SNU16 gastric carcinoma cells; assay: Synergy of MBZ or HA-PLGA-MBZ with chemotherapeutic agents (Chou-Talalay CI, Cell Titer Glo); settings: SNU16 + 5-FU
Description: For in vitro experiments, cells were plated in triplicate and treated with a range of concentrations of MBZ and relevant chemotherapeutic agents in a complete Latin square.
Cells were plated in triplicate and treated with a range of 5 concentrations of MBZ in combination with 5 concentrations of chemotherapeutic agents in a complete Latin square. Following a 72 hour incubation, cell viability was determined using Cell Titer Glo.
In table 22 below, cells were plated in triplicate and treated with a range of 5 concentrations of MBZ or HA-PLGA-MBZ nanoparticles containing a molar equivalent of MBZ, and 5 concentrations of relevant chemotherapeutic agents in a complete Latin square. Combination indexes (CI) were determined based on the method described by Chou-Talalay with a CI value less than 0.9 indicating synergy. […] Numbers in parentheses represent the range of synergistic CI values for each cell line and drug combination.

CHP-212 cells = assay: MBZ vs HA-PLGA-MBZ cell viability IC50 (Cell Titer Glo); settings: Homo sapiens, 72 hour incubation
Excerpt: (§3) An IC50 for each treatment was established using the PRISM software.

COLO-205 cells = assay: as above; settings: Homo sapiens, 72 hour incubation
Excerpt: as §3

COV-362 cells = assay: as above; settings: COV362, 72 hour incubation
Excerpt: as §3

DMS-114 cells = assay: as above; settings: Homo sapiens, 72 hour incubation
Excerpt: as §3

HCT-116 cells = assay: as above; settings: Homo sapiens, 72 hour incubation
Excerpt: as §3

NCI-H295R cells = assay: as above; settings: Homo sapiens, 72 hour incubation
Excerpt: as §3

PC-12 cells = assay: as above; settings: Rattus norvegicus, 72 hour incubation
Excerpt: as §3

SK-UT-1 cells = assay: as above; settings: Homo sapiens, 72 hour incubation
Excerpt: as §3

SKOV-3 cells = assay: as above; settings: Homo sapiens, SK-OV-3, 72 hour incubation
Excerpt: as §3

SNU-16 cells = assay: as above; settings: Homo sapiens, 72 hour incubation
Excerpt: as §3

SW-1271 cells = assay: as above; settings: SW1271, 72 hour incubation
Excerpt: as §3

COC(=O)Nc1nc2ccc(C(=O)c3ccccc3)cc2[nH]1 [MBZ, methyl N-(6-benzoyl-1H-benzimidazol-2-yl)carbamate]
IC50 (A2780cis cells): 0.25 µM
IC50 [1]: ~4.4 µM
IC50 (TOV-112D cells): 0.2 µM
IC50 [2]: 1.02 µM
IC50 [3]: 0.1 µM
IC50 [4]: 0.1 µM
IC50 [5]: 0.49 µM
IC50 [6]: 0.1 µM
IC50 [7]: 0.42 µM
IC50 [8]: 0.26 µM
IC50 [9]: 0.41 µM
IC50 [10]: 0.47 µM
IC50 [11]: 0.09 to 2.2 µM
range of synergistic CI values [12]: 0.223-0.837
IC50 (CHP-212 cells): 0.13 µM
IC50 (COLO-205 cells): 0.27 µM
IC50 (COV-362 cells): 0.33 µM
IC50 (DMS-114 cells): 0.8 µM
IC50 (HCT-116 cells): 0.32 µM
IC50 (NCI-H295R cells): 0.33 µM
IC50 (PC-12 cells): 1.03 µM
IC50 (SK-UT-1 cells): 0.26 µM
IC50 (SKOV-3 cells): 0.68 µM
IC50 (SNU-16 cells): 0.11 µM
IC50 (SW-1271 cells): > 50 µM
